Compared with `Cc1c(C=CC(=O)O)cccc1[N+](=O)[O-]`, `CCc1ccc(C=CC(=O)O)cc1` is lower in melting point: 222 °C for the first, 140 °C for the second.

First: Nc1nc(N)c2cc(Cc3ccc(Cl)cc3)ccc2n1
Second: N#Cc1ccc(Cc2ccc(O)cc2)cc1
The melting point of the first is higher: 224 to 225 °C for the first, 163 to 164 °C for the second.

First: Clc1ccc(-c2nnc(Br)cc2Br)cc1
Second: O=[N+]([O-])c1cnccc1Oc1ccc(Cl)cc1
The melting point of the first is higher: 160 to 162 °C for the first, 93 to 94 °C for the second.

First: CCOC(=O)c1cccc2c1N=C(c1ccccc1Cl)CC2=O
Second: Cc1ccccc1C(=O)N1CCC(=O)c2cc(F)c(Cl)cc21
The melting point of the first is higher: 152 to 153 °C for the first, 84.9 to 88.7 °C for the second.

First: CCOC(=O)c1c(N2CCN(c3ccccc3)CC2)n[nH]c1C
Second: Cc1ccccc1N1CCN(C2CCc3cc(O)ccc3C2)CC1 (stereo not drawn)
The melting point of the first is lower: 137 to 138 °C for the first, 177 to 179 °C for the second.

First: Cc1cc(Oc2ccc(N)cc2C(F)(F)F)n[nH]1
Second: Cc1ccc(Nc2c(F)cccc2C(F)(F)F)c(CC(=O)O)c1
The melting point of the first is lower: 143 to 145 °C for the first, 155 to 156 °C for the second.

Compared with `N#CCc1ccccc1Oc1ccc(Br)cc1`, `N#CCOC(=O)c1cc2ccccc2o1` is higher in melting point: 56 to 58 °C for the first, 74 to 76 °C for the second.

Compared with `N#CN=c1ccccn1C1=CC(CF)(CF)Oc2ccc(C(F)(F)C(F)(F)F)cc21`, `FC(F)(F)c1cccc(Oc2cc(Oc3cccc(C(F)(F)F)c3)nc(Br)n2)c1` is lower in melting point: 196 to 198 °C for the first, 126 to 129 °C for the second.

First: CC1=NNC(=O)c2cccc3[nH]cc1c23
Second: CC(=O)C1C(=O)c2cccc(N)c2C1=O (stereo not drawn)
The melting point of the first is higher: 335 to 336 °C for the first, 126 to 128 °C for the second.

First: CCN1CCN(Cc2nc3sc(C)c(C)c3c(=O)n2-c2ccccc2Cl)CC1
Second: CC(=O)N1CCN(CCNc2ncc3ncnc(Nc4ccc(F)c(Cl)c4)c3n2)CC1
The melting point of the first is lower: 126 to 129 °C for the first, 196 to 198 °C for the second.

Compared with `CCCCCNC(=O)c1cnc(N2CCN(C(=O)c3ccccc3C(F)(F)F)CC2)s1`, `CCCN(CCC)C1COc2cccc(C(=O)c3ccccc3F)c2C1` (stereo not drawn) is higher in melting point: 92 to 94 °C for the first, 98.3 to 98.4 °C for the second.

First: COc1ccc(C2=NN(Cc3ccccc3)C(=O)[C@H]3CC=CC[C@@H]23)cc1OC (relative stereo)
Second: CCOc1ccc(C2=NN(C3CCN(C(C)=O)CC3)C(=O)[C@@H]3CC=CC[C@H]23)cc1OCC
The melting point of the first is lower: 133 to 135 °C for the first, 148 to 150 °C for the second.

Compared with `CCN1C(=O)C(C)(C)C(=O)N(C)c2cc(CN(CCn3ccc4oc(C)cc4c3=O)Cc3ccnn3C)ccc21`, `CCN1C(=O)C(C(=O)Nc2ccc(Cl)cc2)c2cc3c(cc21)CCO3` (stereo not drawn) is higher in melting point: 128 to 131 °C for the first, 175 to 176 °C for the second.

First: CC1(C)OC(=O)C(Sc2nccs2)=C1c1ccc(S(C)(=O)=O)cc1
Second: C=C(C)C(=O)OCCOC(=O)c1ccc2c(c1)C(=O)N(OS(=O)(=O)c1ccc(C)cc1)C2=O
The melting point of the first is higher: 174 to 176 °C for the first, 113 °C for the second.

First: CSc1ccc(Nc2cc(-c3nnc(C)o3)ccn2)cc1
Second: CC(C)CC(=O)Nc1cccc(-c2ccnc3c(-c4cccc(Cl)c4Cl)cnn23)c1
The melting point of the first is higher: 203 to 204 °C for the first, 154 to 156 °C for the second.

First: CC(C)(C)OC(=O)N[C@@H](Cc1ccccc1)[C@@H](O)CO
Second: CCCCNC[C@@H](O)[C@H](Cc1ccccc1)NC(=O)OCc1ccccc1
The melting point of the first is lower: 95 to 96 °C for the first, 118 to 120 °C for the second.

First: CC(C)CCCC(=O)OC1c2ccccc2C(=O)N1c1ccc2ccc(Br)nc2n1 (stereo not drawn)
Second: COC(=O)Cc1ccccc1N(Cc1ccc(C)cc1)c1c(Cl)cccc1Cl
The melting point of the first is higher: 136 °C for the first, 113 to 114 °C for the second.

Compared with `Cc1cc(SC#N)c(C(C)(C)C)cc1NC(=O)OC(C)(C)C`, `CC(C)(C)OC(=O)NNc1ccc(N)cn1` is higher in melting point: 100 to 111 °C for the first, 140 to 142 °C for the second.

Compared with `Cc1cc(SCc2ccc3cn(-c4ccc(C(F)(F)F)cc4)nc3c2)ccc1OCC(=O)O`, `O=c1c2c(Cc3cccc(OC(F)(F)F)c3)n[nH]c2c2cccnc2n1-c1cccc(C(F)(F)F)c1` is lower in melting point: 142 to 144 °C for the first, 129 to 132 °C for the second.

First: CN(C)c1ncc(-c2cccc(Nc3ccc(-n4cccc4)cc3[N+](=O)[O-])c2)cn1
Second: O=C(NCc1ccccn1)Nc1cc(N2CC(c3ccc(F)cc3)CC2=O)ccn1 (stereo not drawn)
The melting point of the first is higher: 166 to 168 °C for the first, 153 to 155 °C for the second.

Compared with `CCCCCCCCCCCC(=O)c1ccc(/C=C/C(=O)OCC)o1`, `CCCCCCCCCCCCOC(C)c1ccc(-c2ccc(C(=O)O)cc2)cc1` (single isomer, unassigned; (+)) is higher in melting point: 50 to 51 °C for the first, 70.5 °C for the second.

Compared with `CC1(C)CCC(C)(C)c2cc(NC(=O)c3ccc(C(=O)O)cc3O)ccc21`, `CC1=NN(C)C(=O)C1C(=O)Nc1cccc2c1CCC2(C)C` (stereo not drawn) is lower in melting point: 286 to 287 °C for the first, 141 °C for the second.

Compared with `CCC(=O)c1cccc2cccc(O)c12`, `N#CCCNC(=O)c1cccc(-c2cccc(Oc3cncc(Cl)c3)n2)c1` is higher in melting point: 114 to 117 °C for the first, 143 to 144 °C for the second.

First: COc1cc(/C=C2/C(=O)OC[C@H]2Cc2cc(OC)c(OCc3ccc([N+](=O)[O-])cc3)c(OCc3ccc([N+](=O)[O-])cc3)c2)cc(OC)c1OC
Second: COc1ccc2c(c1)Sc1cc(OC(C)=O)c3ccccc3c1N2
The melting point of the first is higher: 171 to 172 °C for the first, 156 to 158 °C for the second.

First: CC(C)Oc1ccc(NC(=S)NCc2ccsc2)cc1
Second: CC(C)(Oc1ccccc1)C(=O)N[C@H]1CC[C@H](c2ccc(O)cc2)CC1
The melting point of the first is lower: 80.5 to 81.5 °C for the first, 114 to 117 °C for the second.

Compared with `CC1(C)Oc2ccsc2C(N2CCCC2)C1O` (stereo not drawn), `O=S(=O)(c1ccc(Cl)c(CBr)c1Cl)N1CC[C@H](O)C1` is higher in melting point: 85 to 89 °C for the first, 120 °C for the second.

First: COc1ccccc1NC(=O)Nc1nc(Nc2ccccc2-c2ccccc2)nc(N2CCC(C(=O)O)CC2)n1
Second: c1ccc(CN(c2ccccc2)c2cccc3ccccc23)cc1
The melting point of the first is higher: 130 to 135 °C for the first, 120 to 123 °C for the second.

First: C[C@@H]1CC(=O)CC(C)(C)C1=O
Second: COC(=O)C1(Cl)CC1C(=O)O (stereo not drawn)
The melting point of the first is higher: 91 to 92 °C for the first, 77.7 to 79.1 °C for the second.

First: N#CC(Cc1ccc(Cl)cc1)c1c(Cl)cc(N2N=CCNC2=O)cc1Cl (stereo not drawn)
Second: O=C(NCCO)c1cccc(-c2ccc3c(n2)N(Cc2ccc(Cl)cc2Cl)CC3)c1
The melting point of the first is higher: 213 °C for the first, 142 to 143 °C for the second.

First: N#Cc1cnc2n(c1=O)CCCCC2
Second: CCSc1cc(C#N)c(Cl)cn1
The melting point of the first is higher: 125 °C for the first, 103 to 104 °C for the second.

First: CC#CCOc1ccc(S(=O)(=O)NC(C(=O)NO)c2ccc(OCCN3CCN(C(=O)OC(C)(C)C)CC3)cc2)cc1 (stereo not drawn)
Second: CCCc1c(OCCCSc2ccc(C(=O)CCC(=O)O)c(O)c2)ccc(C(C)=O)c1O
The melting point of the first is lower: 92 to 95 °C for the first, 140 °C for the second.

First: O=C(O)Cc1nn(CC(=S)Nc2cc(C(F)(F)F)ccc2Br)c(=O)c2ccccc12
Second: O=S(=O)(F)C=CNc1ccc(C(F)(F)F)cc1
The melting point of the first is higher: 176 to 177 °C for the first, 71 to 73 °C for the second.

First: NC(=O)/C=C/c1cnoc1-c1ccccc1
Second: c1ccc(-c2cncs2)cc1
The melting point of the first is higher: 194 to 196 °C for the first, 45 to 46 °C for the second.

Compared with `COc1c(O)c(C)c(CN2CCOCC2)c(O)c1OC`, `CCC(CC)COc1c(C)nc(N)nc1N` is higher in melting point: 127 to 130 °C for the first, 142 to 143 °C for the second.

First: NC1Cc2ccccc2N(c2ccccc2)C1=O (stereo not drawn)
Second: c1ccc(-n2c3ccccc3c3cc4c(cc32)c2ccccc2n4-c2ccccc2)cc1
The melting point of the first is lower: 108 to 110 °C for the first, 306 °C for the second.

First: C[C@H](NC(=O)c1c(N)cccc1F)C(=O)O
Second: C=CCNc1ccc(N)cc1[N+](=O)[O-]
The melting point of the first is higher: 194 to 198 °C for the first, 80 to 83 °C for the second.

For `CNC(=O)CCCCc1csc(NC(N)=NCC(F)(F)F)n1`, the melting point was 122 to 126 °C.

Reference: a melting point compilation (Tetko et al.; mined from patent text by program, amines drawn as free bases though some values may be those of a salt)
